Read-outs that look alike come from different tables or passages of the source. Marks after values point to notes of the source that are not given here.
What was measured:
[1] = Pharmacokinetics in rats after i.v. and oral administration
[2] = Madin-Darby canine kidney permeability assay
PTGS2 = target: T1, PTGS2 (Homo sapiens, UniProt P35354); test: safety panel assay, PTGS2; type: biochemical; conditions: Table 2, PTGS2; accurate to ±20%
T1 sequence (P35354 18-604): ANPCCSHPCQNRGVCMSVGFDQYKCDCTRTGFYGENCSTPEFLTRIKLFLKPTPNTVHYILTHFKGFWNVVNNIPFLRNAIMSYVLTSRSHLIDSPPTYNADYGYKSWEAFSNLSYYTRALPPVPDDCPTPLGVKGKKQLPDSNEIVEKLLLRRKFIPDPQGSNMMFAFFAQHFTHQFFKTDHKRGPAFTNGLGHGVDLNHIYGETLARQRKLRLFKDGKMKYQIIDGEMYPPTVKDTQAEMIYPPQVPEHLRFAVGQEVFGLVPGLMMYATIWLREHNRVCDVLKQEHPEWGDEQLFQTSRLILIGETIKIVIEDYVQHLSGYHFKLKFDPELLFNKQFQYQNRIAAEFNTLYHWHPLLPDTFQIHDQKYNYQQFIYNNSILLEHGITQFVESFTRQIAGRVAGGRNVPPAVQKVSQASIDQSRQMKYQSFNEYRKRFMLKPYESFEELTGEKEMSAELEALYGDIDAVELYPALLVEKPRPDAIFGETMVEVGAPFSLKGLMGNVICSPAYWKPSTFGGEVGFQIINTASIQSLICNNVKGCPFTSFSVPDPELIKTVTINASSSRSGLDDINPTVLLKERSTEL

SLCO2B1 = target: T2, SLCO2B1 (Homo sapiens, UniProt O94956); test: in vitro transporter inhibition, SLCO2B1; type: biochemical; conditions: Table 1, predicted target SLCO2B1
T2 sequence (O94956 1-709): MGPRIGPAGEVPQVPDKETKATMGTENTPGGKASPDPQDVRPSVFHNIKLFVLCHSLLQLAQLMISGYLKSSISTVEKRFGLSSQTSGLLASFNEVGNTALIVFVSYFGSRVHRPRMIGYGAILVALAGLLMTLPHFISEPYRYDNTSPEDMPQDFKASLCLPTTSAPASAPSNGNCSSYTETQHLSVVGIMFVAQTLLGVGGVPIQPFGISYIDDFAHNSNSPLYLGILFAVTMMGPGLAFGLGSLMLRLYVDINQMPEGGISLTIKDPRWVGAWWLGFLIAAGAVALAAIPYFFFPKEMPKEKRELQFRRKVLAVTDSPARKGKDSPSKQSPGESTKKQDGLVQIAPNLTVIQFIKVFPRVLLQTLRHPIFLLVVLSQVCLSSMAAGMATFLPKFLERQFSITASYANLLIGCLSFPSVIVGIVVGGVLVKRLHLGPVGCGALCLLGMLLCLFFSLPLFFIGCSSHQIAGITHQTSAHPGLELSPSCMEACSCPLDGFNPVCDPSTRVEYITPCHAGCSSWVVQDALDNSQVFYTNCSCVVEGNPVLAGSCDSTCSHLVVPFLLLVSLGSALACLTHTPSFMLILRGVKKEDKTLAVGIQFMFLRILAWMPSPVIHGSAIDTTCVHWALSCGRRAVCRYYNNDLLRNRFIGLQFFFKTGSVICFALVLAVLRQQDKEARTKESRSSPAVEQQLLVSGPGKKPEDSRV

[3] = rat, in vivo, 1 mg/kg
SLCO1B1 = target: T3, SLCO1B1 (Homo sapiens, UniProt Q9Y6L6); test: in vitro transporter assay, SLCO1B1
T3 sequence (Q9Y6L6 1-691): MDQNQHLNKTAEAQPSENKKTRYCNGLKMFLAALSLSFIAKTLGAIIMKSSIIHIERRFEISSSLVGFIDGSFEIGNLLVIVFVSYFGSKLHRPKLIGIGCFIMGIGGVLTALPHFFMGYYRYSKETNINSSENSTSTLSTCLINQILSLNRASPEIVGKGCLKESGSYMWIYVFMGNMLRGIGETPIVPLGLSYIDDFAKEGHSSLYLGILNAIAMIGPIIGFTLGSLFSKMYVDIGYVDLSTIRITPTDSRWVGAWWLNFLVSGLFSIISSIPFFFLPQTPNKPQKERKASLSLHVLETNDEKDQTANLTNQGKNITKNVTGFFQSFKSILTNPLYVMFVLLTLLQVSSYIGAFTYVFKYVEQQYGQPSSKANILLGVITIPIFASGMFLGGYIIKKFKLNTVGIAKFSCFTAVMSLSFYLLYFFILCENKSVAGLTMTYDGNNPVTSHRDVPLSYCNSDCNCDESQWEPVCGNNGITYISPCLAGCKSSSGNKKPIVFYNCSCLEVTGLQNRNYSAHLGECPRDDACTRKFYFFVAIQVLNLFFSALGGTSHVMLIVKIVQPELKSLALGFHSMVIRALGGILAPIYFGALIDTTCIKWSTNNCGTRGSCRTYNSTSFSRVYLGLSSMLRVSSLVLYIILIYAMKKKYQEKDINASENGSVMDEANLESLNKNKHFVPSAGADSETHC

[4] = tested on: BioMAP Diversity PLUS panel; test: BioMAP Diversity PLUS panel of cell-based systems
[5] = rat, in vivo, cited from earlier work
PDE4D = PDE4D (Homo sapiens, UniProt Q08499); test: in vitro assay, PDE4D; type: biochemical
PDE4D, sequence (Q08499 whole entry): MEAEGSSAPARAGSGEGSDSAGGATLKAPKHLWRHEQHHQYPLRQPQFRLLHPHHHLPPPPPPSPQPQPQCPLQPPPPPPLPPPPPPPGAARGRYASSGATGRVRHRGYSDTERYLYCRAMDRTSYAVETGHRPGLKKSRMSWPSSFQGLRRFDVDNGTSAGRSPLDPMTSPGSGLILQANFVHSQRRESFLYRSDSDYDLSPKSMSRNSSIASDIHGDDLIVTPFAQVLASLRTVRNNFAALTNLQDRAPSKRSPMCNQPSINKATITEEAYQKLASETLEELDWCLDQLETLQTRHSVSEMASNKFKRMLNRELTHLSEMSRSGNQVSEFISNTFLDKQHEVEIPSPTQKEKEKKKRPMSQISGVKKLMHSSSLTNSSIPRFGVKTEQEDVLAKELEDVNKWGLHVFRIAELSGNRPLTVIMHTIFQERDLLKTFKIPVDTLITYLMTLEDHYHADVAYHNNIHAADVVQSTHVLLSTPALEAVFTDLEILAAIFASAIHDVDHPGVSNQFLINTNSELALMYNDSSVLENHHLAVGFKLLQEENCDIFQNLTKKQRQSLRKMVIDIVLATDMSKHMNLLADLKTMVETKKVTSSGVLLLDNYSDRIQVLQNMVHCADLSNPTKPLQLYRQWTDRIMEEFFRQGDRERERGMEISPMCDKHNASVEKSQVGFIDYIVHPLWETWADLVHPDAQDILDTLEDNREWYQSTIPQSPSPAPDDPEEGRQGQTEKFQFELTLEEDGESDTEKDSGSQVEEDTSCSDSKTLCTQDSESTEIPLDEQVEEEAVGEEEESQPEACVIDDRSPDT

DRD5 = DRD5 (Homo sapiens, UniProt P21918); test: in vitro assay, DRD5; type: binding
DRD5, sequence (P21918 whole entry, species assumed): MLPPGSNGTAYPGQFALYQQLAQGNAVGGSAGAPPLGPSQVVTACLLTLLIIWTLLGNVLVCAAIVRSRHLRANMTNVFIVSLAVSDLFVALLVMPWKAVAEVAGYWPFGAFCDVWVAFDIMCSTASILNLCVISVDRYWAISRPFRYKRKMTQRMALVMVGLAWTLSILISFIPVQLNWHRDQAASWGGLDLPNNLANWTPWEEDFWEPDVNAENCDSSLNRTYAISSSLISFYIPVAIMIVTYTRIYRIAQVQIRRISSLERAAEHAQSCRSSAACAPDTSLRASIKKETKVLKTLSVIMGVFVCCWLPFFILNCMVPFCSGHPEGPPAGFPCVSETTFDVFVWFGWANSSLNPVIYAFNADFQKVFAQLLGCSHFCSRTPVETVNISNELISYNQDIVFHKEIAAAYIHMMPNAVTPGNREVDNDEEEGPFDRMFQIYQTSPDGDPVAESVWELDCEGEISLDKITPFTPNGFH

[6] = human adults after repeated vaccination ref 43; cited from earlier work
DRD3 = DRD3 (Homo sapiens, UniProt P35462); conditions: for Kd: read-out: dopamine D3 receptor Kd
DRD3, sequence (P35462 whole entry, species assumed): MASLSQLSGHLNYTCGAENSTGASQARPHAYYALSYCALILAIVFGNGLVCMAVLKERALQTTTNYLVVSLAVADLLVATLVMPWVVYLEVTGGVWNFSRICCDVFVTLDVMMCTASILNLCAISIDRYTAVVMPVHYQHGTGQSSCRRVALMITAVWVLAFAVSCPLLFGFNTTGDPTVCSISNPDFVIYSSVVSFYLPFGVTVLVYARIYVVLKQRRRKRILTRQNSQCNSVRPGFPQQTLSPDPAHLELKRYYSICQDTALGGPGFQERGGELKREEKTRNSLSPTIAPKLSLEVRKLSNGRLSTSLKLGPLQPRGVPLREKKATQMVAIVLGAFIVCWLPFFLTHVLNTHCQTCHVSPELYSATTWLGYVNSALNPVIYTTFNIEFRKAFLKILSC

SLC18A2 = SLC18A2 (Homo sapiens, UniProt Q05940); test: transporter inhibition, SLC18A2; type: biochemical; conditions: Table 2, SLC18A2; accurate to ±20%
SLC18A2, sequence (Q05940 whole entry, species assumed): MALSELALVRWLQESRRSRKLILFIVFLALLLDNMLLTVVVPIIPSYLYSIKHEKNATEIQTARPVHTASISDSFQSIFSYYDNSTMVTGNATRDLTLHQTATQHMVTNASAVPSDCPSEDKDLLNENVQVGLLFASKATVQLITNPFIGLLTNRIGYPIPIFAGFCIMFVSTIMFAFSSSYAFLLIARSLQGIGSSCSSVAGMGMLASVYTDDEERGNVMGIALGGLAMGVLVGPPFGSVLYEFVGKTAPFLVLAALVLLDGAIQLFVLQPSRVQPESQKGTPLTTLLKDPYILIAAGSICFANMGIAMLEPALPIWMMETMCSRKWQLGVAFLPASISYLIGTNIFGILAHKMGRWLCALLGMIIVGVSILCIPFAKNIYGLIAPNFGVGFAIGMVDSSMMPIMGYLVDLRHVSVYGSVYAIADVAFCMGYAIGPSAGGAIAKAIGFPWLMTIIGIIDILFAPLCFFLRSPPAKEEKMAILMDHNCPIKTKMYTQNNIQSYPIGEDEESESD

PDE3A = PDE3A (Homo sapiens, UniProt Q14432); test: safety panel assay, PDE3A; type: biochemical; conditions: Table 2, PDE3A; accurate to ±20%
rat brain = conditions: prenatal treatment, rat brain ref 51; cited from earlier work
rats = conditions: cited from earlier work
ADRA1A = target: T4, ADRA1A (Homo sapiens, UniProt P35348); conditions: Table 2, ADRA1A; accurate to ±20%
T4 sequence (P35348 1-466): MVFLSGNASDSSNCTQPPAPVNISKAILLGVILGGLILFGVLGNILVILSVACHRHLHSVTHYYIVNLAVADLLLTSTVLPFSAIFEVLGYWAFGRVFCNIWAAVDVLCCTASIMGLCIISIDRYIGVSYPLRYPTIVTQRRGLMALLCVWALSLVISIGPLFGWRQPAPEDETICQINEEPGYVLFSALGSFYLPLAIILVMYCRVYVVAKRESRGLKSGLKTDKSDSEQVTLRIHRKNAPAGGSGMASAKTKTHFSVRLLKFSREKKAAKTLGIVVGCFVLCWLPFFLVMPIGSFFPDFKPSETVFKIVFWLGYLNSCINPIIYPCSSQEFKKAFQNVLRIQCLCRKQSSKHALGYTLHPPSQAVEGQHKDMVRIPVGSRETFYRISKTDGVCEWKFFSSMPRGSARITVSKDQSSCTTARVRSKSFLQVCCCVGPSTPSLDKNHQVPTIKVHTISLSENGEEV

CHRM1 = target: T5, CHRM1 (Homo sapiens, UniProt P11229); conditions: Table 2, CHRM1; accurate to ±20%
T5 sequence (P11229 1-460): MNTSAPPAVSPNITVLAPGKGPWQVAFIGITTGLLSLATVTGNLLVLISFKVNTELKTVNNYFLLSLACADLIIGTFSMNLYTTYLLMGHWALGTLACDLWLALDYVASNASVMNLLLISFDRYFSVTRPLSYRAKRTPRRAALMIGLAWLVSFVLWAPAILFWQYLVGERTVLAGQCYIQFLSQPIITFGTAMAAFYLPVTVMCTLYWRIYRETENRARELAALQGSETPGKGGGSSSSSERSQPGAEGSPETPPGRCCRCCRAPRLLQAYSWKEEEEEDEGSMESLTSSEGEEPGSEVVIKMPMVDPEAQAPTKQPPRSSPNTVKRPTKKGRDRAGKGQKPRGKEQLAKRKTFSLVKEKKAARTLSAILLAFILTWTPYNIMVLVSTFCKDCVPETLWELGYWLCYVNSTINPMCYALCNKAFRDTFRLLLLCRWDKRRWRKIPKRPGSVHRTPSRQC

SLC6A2 = SLC6A2 (Homo sapiens, UniProt P23975); conditions: Table 2, SLC6A2; accurate to ±20%
SLC6A2, sequence (P23975 whole entry, species assumed): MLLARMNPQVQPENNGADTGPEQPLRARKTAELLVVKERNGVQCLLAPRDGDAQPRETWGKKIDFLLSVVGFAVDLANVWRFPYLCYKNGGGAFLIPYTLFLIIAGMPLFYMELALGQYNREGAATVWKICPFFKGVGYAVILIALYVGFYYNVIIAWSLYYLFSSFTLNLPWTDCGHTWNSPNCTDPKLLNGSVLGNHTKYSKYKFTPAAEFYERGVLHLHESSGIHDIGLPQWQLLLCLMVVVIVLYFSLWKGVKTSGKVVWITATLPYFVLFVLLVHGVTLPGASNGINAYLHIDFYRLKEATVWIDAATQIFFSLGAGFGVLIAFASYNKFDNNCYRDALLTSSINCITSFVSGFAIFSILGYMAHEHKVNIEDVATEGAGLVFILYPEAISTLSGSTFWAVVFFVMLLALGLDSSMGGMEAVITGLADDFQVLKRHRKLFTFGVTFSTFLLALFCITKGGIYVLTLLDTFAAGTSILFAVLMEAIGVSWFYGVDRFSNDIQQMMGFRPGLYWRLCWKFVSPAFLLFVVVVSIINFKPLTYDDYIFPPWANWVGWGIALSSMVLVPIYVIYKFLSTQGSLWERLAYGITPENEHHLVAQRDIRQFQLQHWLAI

hERG ion channel = hERG ion channel (Homo sapiens, UniProt Q12809)
hERG ion channel, sequence (Q12809 whole entry): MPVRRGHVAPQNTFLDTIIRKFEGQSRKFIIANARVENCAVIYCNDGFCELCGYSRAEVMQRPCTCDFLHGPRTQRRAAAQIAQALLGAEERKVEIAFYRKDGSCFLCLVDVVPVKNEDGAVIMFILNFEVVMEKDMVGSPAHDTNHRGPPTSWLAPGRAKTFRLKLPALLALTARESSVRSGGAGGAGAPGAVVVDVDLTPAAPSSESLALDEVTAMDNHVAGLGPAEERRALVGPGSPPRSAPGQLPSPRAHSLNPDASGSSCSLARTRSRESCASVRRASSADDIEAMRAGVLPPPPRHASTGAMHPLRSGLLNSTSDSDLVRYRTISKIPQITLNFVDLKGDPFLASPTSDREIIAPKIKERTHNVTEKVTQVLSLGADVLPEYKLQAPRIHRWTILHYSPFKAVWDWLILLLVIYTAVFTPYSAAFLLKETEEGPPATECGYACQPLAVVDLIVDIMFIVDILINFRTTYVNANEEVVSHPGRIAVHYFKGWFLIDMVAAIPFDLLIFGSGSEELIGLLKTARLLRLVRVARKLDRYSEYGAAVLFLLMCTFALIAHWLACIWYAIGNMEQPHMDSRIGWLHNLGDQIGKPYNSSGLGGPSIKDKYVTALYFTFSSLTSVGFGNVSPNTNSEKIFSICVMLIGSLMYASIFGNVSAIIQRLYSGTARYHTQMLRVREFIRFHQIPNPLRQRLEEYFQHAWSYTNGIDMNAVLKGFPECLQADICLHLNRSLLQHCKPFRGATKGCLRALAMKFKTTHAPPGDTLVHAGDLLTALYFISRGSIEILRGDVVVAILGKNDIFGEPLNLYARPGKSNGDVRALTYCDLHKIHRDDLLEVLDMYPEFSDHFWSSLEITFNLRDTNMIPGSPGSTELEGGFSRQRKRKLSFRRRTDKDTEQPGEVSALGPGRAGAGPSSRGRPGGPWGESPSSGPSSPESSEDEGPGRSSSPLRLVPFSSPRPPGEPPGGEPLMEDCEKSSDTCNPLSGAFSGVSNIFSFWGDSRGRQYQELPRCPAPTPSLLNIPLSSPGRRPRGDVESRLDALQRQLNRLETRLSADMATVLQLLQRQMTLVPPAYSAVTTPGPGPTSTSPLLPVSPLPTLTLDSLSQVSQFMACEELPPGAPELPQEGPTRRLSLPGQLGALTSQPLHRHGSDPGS

Structure (SMILES): CCCCCCCCCCCCCCCC[n+]1ccccc1 [Cetylpyridinium chloride]
- bioavailability ([1]; rat, in vivo, 1 mg/kg): 5.4%
- half-life ([1]; rat, in vivo, iv, 1 mg/kg): 9.7 h
- Cmax ([1]; rat, in vivo, po, 1 mg/kg): 260 nM
- i.v. AUC 0–24 (d.n.) ([1]; rats, i.v. 1 mg/kg, dose normalized): 15,972 nM-hour
- Oral AUC 0–last (d.n.) ([1]; rats, oral 1 mg/kg, dose normalized): 4,052 nM-hour
- Papp ([2]; dog, MDCK): < 0.5 ×10⁻⁶ cm/s

Structure (SMILES): N[C@@H](CS)C(=O)O [Cysteine]
- Ki/IC50 Or EC50 (PTGS2): 4.7 µM

Structure (SMILES): O=S(=O)([O-])c1ccc(N=Nc2c(O)ccc3ccccc23)cc1.[Na+] [D&C Orange No. 4]
- Ki/IC50 (SLCO2B1): 1.9 µM

Structure (SMILES): Cc1ccc(N=Nc2c([O-])c(C(=O)O)cc3ccccc23)c(S(=O)(=O)[O-])c1.[Na+].[Na+] [D&C Red No. 6]
- %F [3]: 2.5%
- IC50 (SLCO1B1; Table 4, target SLCO1B1): 3.1 µM
- MDCK-LE Papp ([2]; apparent permeability, Madin-Darby canine kidney permeability assay): <1.2 ×10⁻⁶ cm/s

Structure (SMILES): CCOC(=O)c1ccccc1C(=O)OCC [Diethyl phthalate]
- TNF-α modulation ([4]; BioMAP, 1.1 to 30 μM): modulated tumor necrosis factor–α (TNF-α) in a dose-dependent manner
- i.v. AUC 0–24 (d.n.) ([5]; iv): 553 ^† nM-hour
- t1/2 from i.v. dose ([5]; iv): 1.0 ^† hours
- Cmax ([5]; po): 253 nM
- Oral AUC 0–last (d.n.) ([5]; po): 350 ^† nM-hour
- Ki/IC50 (PDE4D; Table 1, PDE4D tested in place of SEA-predicted PDE4B and PDE1): 8.5 µM

Structure (SMILES): CCCCC(CC)COC(=O)CC(C(=O)OCC(CC)CCCC)S(=O)(=O)O (stereo not drawn) [Docusate sodium]
- Ki/IC50 (SLCO2B1): 2.3 µM

Structure (SMILES): C[CH2][Hg] [Ethyl mercury]
- Ki/IC50 Or EC50 (DRD5; Table 2, DRD5, accurate to ±20%): 0.15 µM
- Kd (DRD5; read-out: dopamine D5 receptor Kd): ~0.15 µM
- median blood concentration of ethyl mercury [6]: 0.14 ng/mL
- Ki/IC50 Or EC50 (DRD3; Table 2, DRD3, accurate to ±20%): 0.21 µM
- Kd (DRD3): ~0.21 µM
- Kd (DRD3; listed as major metabolite): 0.21 µM

Structure (SMILES): CCOC(=O)c1ccc(O)cc1 [Ethylparaben]
- Ki/IC50 Or EC50 (SLC18A2): 22 µM

Structure (SMILES): COc1cc(S(=O)(=O)[O-])c(C)cc1N=Nc1c(O)ccc2cc(S(=O)(=O)[O-])ccc12.[Na+].[Na+] [FD&C Red No. 40]
- Ki/IC50 (SLCO2B1): 4.7 µM

Structure (SMILES): O=S(=O)([O-])c1ccc(N=Nc2c(O)ccc3cc(S(=O)(=O)[O-])ccc23)cc1.[Na+].[Na+] [FD&C Yellow No. 6]
- Ki/IC50 (SLCO2B1): 74 µM

Structure (SMILES): CC1(C)[C@@H](O[C@H]2O[C@H](C(=O)O)[C@@H](O)[C@H](O)[C@H]2O[C@@H]2O[C@H](C(=O)O)[C@@H](O)[C@H](O)[C@H]2O)CC[C@]2(C)[C@H]3C(=O)C=C4[C@@H]5C[C@@](C)(C(=O)O)CC[C@]5(C)CC[C@@]4(C)[C@]3(C)CC[C@@H]12 [Glycyrrhizin]
- Ki/IC50 (SLCO1B1; Table 1, predicted target SLCO1B1): 13 µM

Structure (SMILES): CCCCCCCCCCCCCCCC(=O)O [Palmitic acid]
- Ki/IC50 Or EC50 (PDE3A): 4.1 µM
- Ki/IC50 Or EC50 (SLC18A2): 4.4 µM
- Ki/IC50 Or EC50 (PDE4D; Table 2, PDE4D, accurate to ±20%): 6.6 µM

Structure (SMILES): C[CH2][Hg][S]c1ccccc1C(=O)[O-].[Na+] [Thimerosal]
- effect on serotonergic and dopaminergic systems (rat brain): impaired the serotonergic and dopaminergic systems in the rat brain
- IC50 (DRD3; Table 4, target DRD3): 0.32 µM
- Kd (DRD3): 0.32 µM
- striatal D2 receptor density (immunohistochemistry) (rats; rats ref 48): decline in striatal D2 receptor density
- behavioral effects (rats; rats treated postnatally ref 48): impaired locomotor function, increased anxiety/neophobia in the open field, and alterations in social behavior

Structure (SMILES): Cc1ccc(C(C)C)c(O)c1 [Thymol]
- Ki/IC50 Or EC50 (ADRA1A): 26 µM
- Ki/IC50 Or EC50 (CHRM1): 14 µM
- Ki/IC50 Or EC50 (SLC18A2): 25 µM
- Ki/IC50 Or EC50 (SLC6A2): 28 µM

Structure (SMILES): CNC1(c2ccccc2Cl)CCCCC1=O (stereo not drawn) [ketamine]
- hERG activity (hERG ion channel): no detectable hERG activity

Structure (SMILES): CC(O)CO (stereo not drawn) [propylene glycol]
- activity in the BioMAP cell-based systems ([4]; 1.1, 3.3, 10, 30 μM): no measurable activity

— PMC7960226 (Science (New York, N.Y.), 2020)
